From patent US20240067637A1, “NAPHTHYRIDINE AND PYRIDO[3,4-c]PYRIDAZINE DERIVATIVES AS GABAA ALPHA 5 RECEPTOR MODULATORS” (Richter Gedeon Nyrt., priority 2020, published 2024)

Target: human recombinant GABAA α5β3γ2 receptor (Homo sapiens (Human), UniProt P18507+P31644)
Assay: Radioligand ([3H]Ro151788) receptor binding assay
Conditions: membranes of HEK cells expressing human recombinant GABAA α5β3γ2; 0.5 nM [3H]Ro151788; 60 minutes at 4° C.; read-out: hGABAA α5 Ki
Procedure: The GABAA α5β3γ2 protein used for the receptor binding assay was derived from membranes produced from HEK cells (Millipore CYL3073) expressing the human recombinant GABAA α5β3γ2 receptor. Cells were stored and cultured in-house according to the instructions provided by the vendor (Millipore). Cell pellet was homogenized in 10 times modified Krebs Henseleit buffer (membrane preparation buffer): 20 mM Tris, 120 mM NaCl, 100 mM KCl, 25 mM CaCl2 and 25 mM MgCl2 pH=7.4 at 4° C. using Ultra Turrax (Janke&Kunkel) maximal speed for 15 seconds. The homogenate was centrifuged at 40,000 g for 30 minutes at 4° C. Supernatant was discarded and the resulting pellet was washed in membrane preparation buffer. Pellet was resuspended in membrane preparation buffer and aliquots of 1.4 mL ampules were stored at −70° C. until use.
Receptor binding assays were performed in 96-well format in deep-well plates. For each 96-well plate one ampule of membrane homogenate was thawed and diluted in binding buffer (50 mM Tris pH=7.4, 100 mM KCl) and 200 μL was dispensed into each well. Radioligand [^3H]Ro151788 (Perkin Elmer: NET757250UC) was prepared in binding buffer and added to each well in 50 μL volume to give final concentration of 0.5 nM. Test compounds in suitable concentration(s) were added in additional 50 μL. The final assay volume was 300 μL. Incubation was carried out for 60 minutes at 4° C. For non-specific binding 10 μM unlabeled diazepam was used. After incubation samples were filtered over UniFilter® GF/BT using Filtermate Harvester (Perkin Elmer) and washed with 5×1 mL binding buffer. The plate was dried at 40° C. for an hour and 40 μL Microscint (Perkin Elmer) scintillation cocktail was added to each well. The plate was read in Microbeta (Perkin Elmer).
The specific radioligand binding (SB) was defined as the difference between total binding (Tot) and the non-specific binding (NSB). Results are expressed as a percent inhibition of specific binding obtained in the presence of compound of interest.
For IC50 and Ki determination a minimum of six drug concentrations in triplicate were used. IC50 values (i.e. concentration of compound giving 50% inhibition of specific binding) were calculated from concentration-displacement curves by sigmoidal fitting using Origin 7.5 software. Ki values (i.e. inhibition constants) were calculated using the Cheng-Prusoff equation Ki=IC50/[1+(L/KD)], where [L] is the radioligand concentration and KD the affinity of the labelled ligand for receptor. KD was determined from the Saturation analyses.

Sequence of human recombinant GABAA α5β3γ2 receptor (P31644 32-462): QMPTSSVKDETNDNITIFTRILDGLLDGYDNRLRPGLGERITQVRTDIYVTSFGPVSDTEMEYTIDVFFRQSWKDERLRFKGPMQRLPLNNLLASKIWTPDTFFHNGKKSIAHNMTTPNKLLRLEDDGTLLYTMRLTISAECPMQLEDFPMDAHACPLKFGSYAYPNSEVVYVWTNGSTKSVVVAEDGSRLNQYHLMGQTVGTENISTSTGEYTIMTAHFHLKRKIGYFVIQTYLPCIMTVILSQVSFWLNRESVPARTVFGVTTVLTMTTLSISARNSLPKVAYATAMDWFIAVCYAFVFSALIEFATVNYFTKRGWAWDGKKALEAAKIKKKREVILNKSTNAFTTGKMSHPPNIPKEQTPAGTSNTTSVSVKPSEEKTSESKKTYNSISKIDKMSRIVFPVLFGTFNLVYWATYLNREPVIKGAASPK
Sequence of human recombinant GABAA α5β3γ2 receptor (P28472 26-473 partner): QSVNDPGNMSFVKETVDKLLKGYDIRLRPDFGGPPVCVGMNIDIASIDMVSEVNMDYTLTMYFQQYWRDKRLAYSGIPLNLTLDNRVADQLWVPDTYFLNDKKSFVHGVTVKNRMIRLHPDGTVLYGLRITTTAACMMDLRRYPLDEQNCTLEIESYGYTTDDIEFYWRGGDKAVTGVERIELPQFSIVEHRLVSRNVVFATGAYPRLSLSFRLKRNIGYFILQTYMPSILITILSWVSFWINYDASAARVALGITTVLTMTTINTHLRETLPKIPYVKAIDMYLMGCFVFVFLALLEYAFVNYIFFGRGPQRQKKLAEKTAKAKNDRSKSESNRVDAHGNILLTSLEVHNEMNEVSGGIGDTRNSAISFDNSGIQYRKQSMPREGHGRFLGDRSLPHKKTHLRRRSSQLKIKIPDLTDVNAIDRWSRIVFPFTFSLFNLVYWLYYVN
Sequence of human recombinant GABAA α5β3γ2 receptor (P18507 40-475): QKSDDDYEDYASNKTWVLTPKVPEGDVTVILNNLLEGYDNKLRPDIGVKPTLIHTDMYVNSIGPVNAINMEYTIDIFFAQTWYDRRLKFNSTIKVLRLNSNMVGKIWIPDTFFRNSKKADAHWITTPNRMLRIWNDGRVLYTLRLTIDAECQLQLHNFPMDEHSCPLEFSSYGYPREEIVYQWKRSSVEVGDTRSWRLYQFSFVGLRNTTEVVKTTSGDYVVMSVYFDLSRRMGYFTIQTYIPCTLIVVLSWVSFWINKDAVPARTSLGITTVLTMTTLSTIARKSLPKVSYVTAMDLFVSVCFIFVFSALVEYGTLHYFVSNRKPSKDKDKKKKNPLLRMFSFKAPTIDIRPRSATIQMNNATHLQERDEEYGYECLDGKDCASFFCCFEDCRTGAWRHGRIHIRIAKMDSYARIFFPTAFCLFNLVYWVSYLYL

`CCC(=O)N1CCc2cc(OCc3c(-c4ccc(C)nc4)nnn3C)ncc2C1` [Example 62, 1-(6-{[1-methyl-4-(6-methylpyridin-3-yl)-1H-1,2,3-triazol-5-yl]methoxy}-1,2,3,4-tetrahydro-2,7-naphthyridin-2-yl)propan-1-one] gave a Ki of 33 nM.
With `Cc1ccc(-n2nnc(C)c2COc2cc3c(cn2)CN(C(=O)CC(C)C)CC3)cn1` [Example 41, 3-methyl-1-(6-{[4-methyl-1-(6-methylpyridin-3-yl)-1H-1,2,3-triazol-5-yl]methoxy}-1,2,3,4-tetrahydro-2,7-naphthyridin-2-yl)butan-1-one] the Ki was 48 nM.
Work on `CCC(=O)N1CCc2cc(OCc3c(-c4ccc(C)nc4)noc3C)nnc2C1` [Example 29, 1-(3-{[5-methyl-3-(6-methylpyridin-3-yl)-1,2-oxazol-4-yl]methoxy}-5H,6H,7H,8H-pyrido[3,4-c]pyridazin-7-yl)propan-1-one] yielded a Ki of 6 nM.
Work on `CCC(=O)N1CCc2cc(OCc3c(C)nnn3-c3ccc(C(F)(F)F)nc3)ncc2C1` [Example 48, 1-[6-({4-methyl-1-[6-(trifluoromethyl)pyridin-3-yl]-1H-1,2,3-triazol-5-yl}methoxy)-1,2,3,4-tetrahydro-2,7-naphthyridin-2-yl]propan-1-one] yielded a Ki of 33 nM.
`CC(=O)N1CCc2cc(OCc3c(-c4ccc(C(F)(F)F)nc4)noc3C)ncc2C1` [Example 4, 1-[6-({5-methyl-3-[6-(trifluoromethyl)pyridin-3-yl]-1,2-oxazol-4-yl}methoxy)-3,4-dihydro-2,7-naphthyridin-2(1H)-yl]ethanone] gave a Ki of 9.7 nM.
Compound `CCN1CC(C(=O)N2CCc3cc(OCc4c(-c5ccc(C)nc5)noc4C)ncc3C2)CC1=O` (stereo not drawn) [Example 23, 1-ethyl-4-(6-{[5-methyl-3-(6-methylpyridin-3-yl)-1,2-oxazol-4-yl]methoxy}-1,2,3,4-tetrahydro-2,7-naphthyridine-2-carbonyl)pyrrolidin-2-one] has a Ki of 6.9 nM.
For `Cc1ccc(-c2noc(C)c2COc2cc3c(cn2)CN(C(=O)c2cccnc2)CC3)cn1` [Example 7, 6-{[5-methyl-3-(6-methylpyridin-3-yl)-1,2-oxazol-4-yl]methoxy}-2-(pyridine-3-carbonyl)-1,2,3,4-tetrahydro-2,7-naphthyridine], the Ki was 6 nM.
Work on `Cc1ccc(-c2noc(C)c2COc2cc3c(cn2)CN(C(=O)C2CC(=O)N(C)C2)CC3)cn1` (stereo not drawn) [Example 15, 1-methyl-4-(6-{[5-methyl-3-(6-methylpyridin-3-yl)-1,2-oxazol-4-yl]methoxy}-1,2,3,4-tetrahydro-2,7-naphthyridine-2-carbonyl)pyrrolidin-2-one] yielded a Ki of 8.3 nM.
Work on `CC(=O)N1CCc2cc(OCc3c(-c4ccc(C)nc4)noc3C)ncc2C1` [Example 1, 1-[6-{[5-methyl-3-(6-methylpyridin-3-yl)-1,2-oxazol-4-yl]methoxy}-3,4-dihydro-2,7-naphthyridin-2(1H)-yl]ethanone] yielded a Ki of 1.7 nM.
With `CC(=O)N1CCc2cc(OCc3c(C)nnn3-c3ccc(C(F)(F)F)nc3)ncc2C1` [Example 47, 1-[6-({4-methyl-1-[6-(trifluoromethyl)pyridin-3-yl]-1H-1,2,3-triazol-5-yl}methoxy)-1,2,3,4-tetrahydro-2,7-naphthyridin-2-yl]ethan-1-one] the Ki was 25 nM.
In the case of `Cc1ccc(-c2noc(C)c2COc2cc3c(cn2)CN(C(=O)C2CCC(=O)N(C)C2)CC3)cn1` (stereo not drawn) [Example 20, 1-methyl-5-(6-{[5-methyl-3-(6-methylpyridin-3-yl)-1,2-oxazol-4-yl]methoxy}-1,2,3,4-tetrahydro-2,7-naphthyridine-2-carbonyl)piperidin-2-one], the Ki is reported as 9 nM.
For `Cc1ccc(-c2noc(C)c2COc2cc3c(nn2)CN(C(=O)C2CCOCC2)CC3)cn1` [Example 27, 2-methyl-5-[5-methyl-4-({[7-(oxane-4-carbonyl)-5H,6H,7H,8H-pyrido[3,4-c]pyridazin-3-yl]oxy}methyl)-1,2-oxazol-3-yl]pyridine], the Ki was 10 nM.
`Cc1ccc(-c2noc(C)c2COc2cc3c(nn2)CN(C(=O)C(C)C)CC3)cn1` [Example 31, 2-methyl-1-(3-{[5-methyl-3-(6-methylpyridin-3-yl)-1,2-oxazol-4-yl]methoxy}-5H,6H,7H,8H-pyrido[3,4-c]pyridazin-7-yl)propan-1-one] showed a Ki of 4.3 nM.
With `CC(=O)N1CCc2cc(OCc3c(-c4ccc(C)nc4)nnn3C)ncc2C1` [Example 60, 1-(6-{[1-methyl-4-(6-methylpyridin-3-yl)-1H-1,2,3-triazol-5-yl]methoxy}-1,2,3,4-tetrahydro-2,7-naphthyridin-2-yl)ethan-1-one] the Ki was 22 nM.
`CC(=O)N1CCc2cc(OCc3c(-c4ccc(C(F)(F)F)nc4)noc3C)nnc2C1` [Example 34, 1-[3-({5-methyl-3-[6-(trifluoromethyl)pyridin-3-yl]-1,2-oxazol-4-yl}methoxy)-5H,6H,7H,8H-pyrido[3,4-c]pyridazin-7-yl]ethan-1-one] gave a Ki of 8.1 nM.
Work on `Cc1ccc(-c2noc(C)c2COc2cc3c(nn2)CN(C(=O)NC2CC2)CC3)cn1` [Example 33, N-cyclopropyl-3-{[5-methyl-3-(6-methylpyridin-3-yl)-1,2-oxazol-4-yl]methoxy}-5H,6H,7H,8H-pyrido[3,4-c]pyridazine-7-carboxamide] yielded a Ki of 2.2 nM.
`Cc1ccc(-c2noc(C)c2COc2cc3c(cn2)CN(C(=O)OC(C)(C)C)CC3)cn1` [Example 2, tert-butyl 6-{[5-methyl-3-(6-methylpyridin-3-yl)-1,2-oxazol-4-yl]methoxyl}-1,2,3,4-tetrahydro-2,7-naphthyridine-2-carboxylate] showed a Ki of 38 nM.
`Cc1ccc(-c2nnn(C)c2COc2cc3c(cn2)CN(C(=O)C2CC2)CC3)cn1` [Example 65, 2-cyclopropanecarbonyl-6-{[1-methyl-4-(6-methylpyridin-3-yl)-1H-1,2,3-triazol-5-yl]methoxy}-1,2,3,4-tetrahydro-2,7-naphthyridine] showed a Ki of 52 nM.
